In patent US20250282746A1, “HALOGEN-SUBSTITUTED ISOINDOLINE COMPOUND AND USE THEREOF” (CHENGDU FENDI PHARMACEUTICAL CO., LTD., priority 2022, published 2025):

Key:
Assay type in all cases: cell-based
MV-4-11 cells = assay: Antiproliferative activity against MV-4-11 cells (CellTiter-Glo, 72 h); settings: Homo sapiens, MV4-11; MV-4-11 cells, 72 h; read-out: Antiproliferative activity IC50
Method in brief: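 MV-4-11 cells in RPMI + 10% FBS plated at 5,000 cells/well and pre-incubated 24 h at 37 °C, 5% CO2. Compounds were then added (final DMSO 0.2%) and cells incubated 72 h. Viability was read by CellTiter-Glo luminescence after 30 min equilibration at room temperature.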

CK1α = target: T1, CK1α (Homo sapiens, UniProt P48729); assay: Degradation of CK1α protein in HL-60 cells (Western blot); settings: 4 h
T1 construct: The whole cell lysate was prepared using a RIPA lysis buffer; endogenous in cells; host or cells: HL-60 cells
T1 sequence (P48729 whole entry): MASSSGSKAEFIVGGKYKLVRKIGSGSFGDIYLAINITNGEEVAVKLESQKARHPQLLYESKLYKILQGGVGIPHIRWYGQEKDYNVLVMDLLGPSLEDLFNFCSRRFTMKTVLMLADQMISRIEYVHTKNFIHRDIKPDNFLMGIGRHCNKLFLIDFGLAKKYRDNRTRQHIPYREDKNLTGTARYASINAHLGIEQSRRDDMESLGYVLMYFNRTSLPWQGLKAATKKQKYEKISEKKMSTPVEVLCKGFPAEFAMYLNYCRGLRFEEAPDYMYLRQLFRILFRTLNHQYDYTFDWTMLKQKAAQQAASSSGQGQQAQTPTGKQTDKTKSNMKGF
Protocol: (§1) […] of DMSO and the compounds were added, and the mixture was incubated in an incubator at 5% CO2 and 37° C. for 4 h. The cells were centrifuged, and the culture medium was discarded. PBS was added for washing and then discarded. The whole cell lysate was prepared using a RIPA lysis buffer containing a protease inhibitor cocktail and a phosphatase inhibitor, and incubated on ice for 30 min. The mixture was centrifuged, and the cell debris was discarded. The whole cell lysate supernatant was collected and transferred to a fresh EP tube. Samples were prepared using a loading buffer after a BCA protein assay. The samples were incubated in a metal bath at 100° C. for 10 min. The samples were electrophoretically separated from proteins on a 4-20% precast gel (SDS-PAGE gel), transferred to a PVDF membrane, blocked with 5% NFDM/TBST for 1 h at room temperature, co-incubated overnight at 4° C. with the primary antibody, and co-incubated for 2 h at room temperature with the secondary antibody on the next day. The signals were detected on the […]™ imaging system.

GSPT1 protein = target: T2, GSPT1 protein (Homo sapiens, UniProt P15170); assay: Degradation of GSPT1 protein in NB-4 cells (Western blot); settings: NB-4 cells, compound 1 μM, 6 h; read-out: GSPT1 degradation
T2 construct: The whole cell lysate was prepared using a RIPA lysis buffer; endogenous in cells; host or cells: NB-4 cells
T2 sequence (P15170 whole entry): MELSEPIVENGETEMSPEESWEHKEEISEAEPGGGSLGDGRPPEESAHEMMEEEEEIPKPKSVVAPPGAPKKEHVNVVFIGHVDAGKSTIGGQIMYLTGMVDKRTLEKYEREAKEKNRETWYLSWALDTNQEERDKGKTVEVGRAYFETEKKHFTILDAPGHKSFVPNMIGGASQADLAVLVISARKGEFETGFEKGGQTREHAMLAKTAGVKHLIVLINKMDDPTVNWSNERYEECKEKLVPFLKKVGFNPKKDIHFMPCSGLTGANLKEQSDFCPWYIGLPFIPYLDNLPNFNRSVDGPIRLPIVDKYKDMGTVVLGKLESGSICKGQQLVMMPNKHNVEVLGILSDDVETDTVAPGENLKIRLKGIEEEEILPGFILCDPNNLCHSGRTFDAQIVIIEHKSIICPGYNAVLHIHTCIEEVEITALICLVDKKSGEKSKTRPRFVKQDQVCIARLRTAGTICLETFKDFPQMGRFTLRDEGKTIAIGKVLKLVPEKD
Method in brief: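 NB-4 cells treated with compounds at 1 μM for 6 h at 37 °C, 5% CO2, with DMSO control. RIPA whole-cell lysates, BCA-normalized, were run on 4-20% SDS-PAGE and immunoblotted for GSPT1 protein.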

c-Myc = target: T3, c-Myc (Homo sapiens, UniProt P01106); assay: Degradation of c-MYC protein in HL-60 cells (Western blot); settings: 4 h
T3 construct: The whole cell lysate was prepared using a RIPA lysis buffer; endogenous in cells; host or cells: HL-60 cells
T3 sequence (P01106 whole entry): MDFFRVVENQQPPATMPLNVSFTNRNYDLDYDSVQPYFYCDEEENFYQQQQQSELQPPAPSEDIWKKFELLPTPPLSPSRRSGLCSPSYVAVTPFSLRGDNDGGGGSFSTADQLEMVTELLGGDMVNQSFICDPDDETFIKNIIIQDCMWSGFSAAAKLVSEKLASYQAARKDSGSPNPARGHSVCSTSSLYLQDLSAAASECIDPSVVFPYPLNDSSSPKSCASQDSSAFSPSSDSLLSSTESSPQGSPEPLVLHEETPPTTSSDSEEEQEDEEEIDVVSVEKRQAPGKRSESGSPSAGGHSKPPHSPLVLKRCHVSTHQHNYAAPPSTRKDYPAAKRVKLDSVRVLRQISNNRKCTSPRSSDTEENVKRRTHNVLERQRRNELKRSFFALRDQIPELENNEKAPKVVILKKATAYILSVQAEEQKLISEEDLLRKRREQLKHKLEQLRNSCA
Protocol: as §1

AML-2 cells = assay: Antiproliferative activity against various tumor cells: AML-2; settings: AML-2 cells, 72 h; read-out: Antiproliferative activity IC50 AML-2
Protocol: (§2) U937, NCI-H929, AML-2, and MOLM-13 cells in the logarithmic growth phase were diluted in media RPMI+10% FBS, RPMI+10% FBS, MEMα+20% FBS, RPMI+20% FBS, respectively, and plated at 4,000 cells/well in 96-well whole black plates (WHB) with 50 μL/well. After plating, the plates were incubated in an incubator at 5% CO2 and 37° C. for 24 h before the compounds were added. The compounds were prepared into a 10 mM stock solution in DMSO and diluted in a culture medium to the desired concentrations (a final DMSO concentration of 0.2%). […] The plates were incubated at 5% CO2 and 37° C. for 72 h. After the incubation was complete, the plates were equilibrated at room temperature for 30 min. CellTiter-Glo® Reagent (Promega G7573) was added at 100 μL/well. The plates were shaken for 12 min on a microplate shaker. The luminescence value was measured at room temperature by the GloMax navigator (Promega GM2010).

U937 cells = assay: Antiproliferative activity against various tumor cells: U937; settings: Homo sapiens, U-937; U937 cells, 72 h; read-out: Antiproliferative activity IC50 U937
Protocol: as §2

MOLM-13 cells [1] = assay: Antiproliferative activity against various tumor cells: MOLM-13; settings: Homo sapiens; MOLM-13 cells, 72 h; read-out: Antiproliferative activity IC50 MOLM-13
Protocol: as §2

NCI-H929 cells [2] = assay: Antiproliferative activity against various tumor cells: NCI-H929; settings: Homo sapiens; NCI-H929 cells, 72 h; read-out: Antiproliferative activity IC50 NCI-H929
Protocol: as §2

NCI-H929 cells [3] = assay: Antiproliferative effect alone and in combination with dexamethasone against NCI-H929 cells; settings: 72 h, read-out: IC50
Protocol: (§3) MOLM-13 cells in the logarithmic growth phase were diluted in a medium RPMI+[…], and NCI-H929 cells were diluted in a medium RPMI+10% FBS. The cells were plated at 4,000 cells/well in 96-well whole black plates (WHB) with 50 μL/well. After plating, the plates were incubated in an incubator at 5% CO2 and 37° C. for 24 h before the compounds were added. The compounds were prepared into a 10 mM stock solution in DMSO and diluted in a culture medium to the desired concentrations (a final DMSO concentration of 0.2%). 50 μL of the compound dilutions at final concentrations of 10,000, 3,333.33, 1,111.11, 370.37, 123.46, 41.15, 13.72, 4.57, 1.52, and 0 nM were added to the 96-well plates containing the cells, that is, each compound was serially diluted to 10 concentrations in duplicate. The plates were incubated at 5% CO2 and 37° C. for 72 h. When pharmaceutical partners were used, the concentrations of azacitidine and dexamethasone were kept at 200 nM and 500 nM respectively, and the compounds were serially three-fold diluted from 10,000 nM. After the incubation was complete, the plates were equilibrated at room temperature for 30 min. CellTiter-Glo® Reagent (Promega G7573) was added at 100 μL/well. The plates were shaken for 12 min on a microplate shaker. The luminescence value was measured at room temperature by the GloMax navigator (Promega GM2010). The IC50 values were calculated using the GraphPad Prism 7 software with the 0 nM control group as 0% inhibition.

MOLM-13 cells [4] = assay: Antiproliferative effect alone and in combination with azacitidine against MOLM-13 cells
Protocol: as §3

[5] = in combination with 500 nM dexamethasone

Row | SMILES | IC50 (MV-4-11 cells) [nM] | inhibition at 1 µM (GSPT1 protein) [%] | IC50 (AML-2 cells) [nM] | IC50 (U937 cells) [nM] | IC50 (MOLM-13 cells [1]) [nM] | IC50 (NCI-H929 cells [2]) [nM] | other results
1 | CCCCCCCCCCCCSC(=S)SC(C)(C#N)CCC(=O)NCc1ccc2c(c1F)CN(C1CCC(=O)NC1=O)C2=O (stereo not shown) [FDAB-164] | < 1 | > 80 |  |  |  |  | CK1α degradation (CK1α; 10 nM): D (D denotes a percentage of degradation less than 25%); CK1α degradation (CK1α; 100 nM): C (C denotes a percentage of degradation less than 500% but not less than 250%); CK1α degradation (CK1α; 1000 nM): C (C denotes a percentage of degradation less than 500% but not less than 250%); c-Myc degradation (c-Myc; 10 nM): D (D denotes a percentage of degradation less than 25%); c-Myc degradation (c-Myc; 100 nM): C (C denotes a percentage of degradation less than 500% but not less than 250%); c-Myc degradation (c-Myc; 1000 nM): C (C denotes a percentage of degradation less than 500% but not less than 250%)
2 | CC(C)(C)c1ccc(C(=O)NCc2ccc3c(c2F)CN(C2CCC(=O)NC2=O)C3=O)cc1 (stereo not shown) [FDAB-94] | < 1 | > 80 | < 1 | < 1 | < 1 | 1 to 10 | 
3 | O=C(C#Cc1ccccc1)NCc1ccc2c(c1F)CN(C1CCC(=O)NC1=O)C2=O (stereo not shown) [FDAB-144] | < 1 | > 80 | 1 to 10 | 1 to 10 | < 1 | < 1 | 
4 | O=C(CCc1cccc(F)c1)NCc1ccc2c(c1F)CN(C1CCC(=O)NC1=O)C2=O (stereo not shown) [FDAB-137] | 1 to 10 | > 80 | 1 to 10 | 1 to 10 | 1 to 10 | 1 to 10 | 
5 | O=C1CCC(N2Cc3c(ccc(CNC(=O)C(F)(F)c4ccc(Cl)cc4)c3F)C2=O)C(=O)N1 (stereo not shown) [FDAB-124] | 10 to 100 | > 80 | 10 to 100 | 10 to 100 | 10 to 100 | 100 to 1000 | 
6 | O=C1CCC(N2Cc3c(ccc(CNC(=O)C4CC5(CCC5)C4)c3F)C2=O)C(=O)N1 (stereo not shown) [FDAB-156] | 1 to 10 | > 80 | 10 to 100 | 1 to 10 | 10 to 100 | 1 to 10 | 
7 | Nc1cccc2c1CN(C1CCC(=O)NC1=O)C2=O (stereo not shown) [Lenalidomide] |  |  |  |  |  |  | IC50 (NCI-H929 cells [3]; [5]): 774 nM; IC50 (NCI-H929 cells [3]; Homo sapiens, compound alone): 2180 nM
8 | Nc1cccc2c1C(=O)N(C1CCC(=O)NC1=O)C2=O (stereo not shown) [Pomalidomide] |  |  |  |  |  |  | IC50 (NCI-H929 cells [3]; [5]): 22.2 nM; IC50 (NCI-H929 cells [3]; Homo sapiens, compound alone): 243 nM
9 | O=C(C#Cc1ccc(-c2ccccc2)cc1)NCc1ccc2c(c1F)CN(C1CCC(=O)NC1=O)C2=O (stereo not shown) [FDAB-147] | < 1 | > 80 | < 1 | < 1 | < 1 | < 1 | 
10 | C[C@@H]1C[C@H]2[C@@H]3CCC4=CC(=O)C=C[C@]4(C)[C@@]3(F)[C@@H](O)C[C@]2(C)[C@@]1(O)C(=O)CO [Dexamethasone] |  |  |  |  |  |  | IC50 (NCI-H929 cells [3]; Homo sapiens, compound alone): > 10000 nM
11 | Cc1cc(C(=O)NCc2ccc3c(c2F)CN(C2CCC(=O)NC2=O)C3=O)cc(C)c1C (stereo not shown) [FDAB-92] | 1 to 10 | > 80 | 1 to 10 | 1 to 10 | 1 to 10 | 10 to 100 | 
12 | O=C1CCC(N2Cc3c(ccc(CNC(=O)c4ccc(C(=O)c5ccccc5)cc4)c3F)C2=O)C(=O)N1 (stereo not shown) [FDAB-100] | < 1 | > 80 | 1 to 10 | < 1 | < 1 | < 1 | 
13 | O=C1CCC(N2Cc3c(ccc(CNC(=O)c4cc5cc(Cl)ccc5o4)c3Cl)C2=O)C(=O)N1 (stereo not shown) [FDAB-68] | 1 to 10 | 50 to 80 | 10 to 100 | 10 to 100 | 10 to 100 | 1 to 10 | 
14 | Nc1ncn([C@@H]2O[C@H](CO)[C@@H](O)[C@H]2O)c(=O)n1 [Azacitidine, reference compound] |  |  |  |  |  |  | antiproliferative activity against MOLM-13 cells at fixed concentration (MOLM-13 cells [4]; 200 nM): no significant antiproliferative activity; IC50 (MOLM-13 cells [4]; Homo sapiens, MOLM-13 cells, 72 h, compound alone): 751 nM
15 | O=C(/C=C/c1ccc(Cl)cc1)NCc1ccc2c(c1F)CN(C1CCC(=O)NC1=O)C2=O (stereo not shown) [FDAB-142] | < 1 | > 80 | 1 to 10 | 1 to 10 | < 1 | < 1 | 
16 | COc1cccc(C(=O)NCc2cc3c(cc2F)C(=O)N(C2CCC(=O)NC2=O)C3)c1 (stereo not shown) [FDAB-37] | 10 to 100 | 50 to 80 |  |  |  |  | 
17 | O=C1CCC(N2Cc3cc(CNC(=O)c4cc5cc(F)ccc5o4)c(Cl)cc3C2=O)C(=O)N1 (stereo not shown) [FDAB-73] | > 1000 | < 25 |  |  |  |  | 
